In US11213527B2, “Inhibitory effect of low molecular weight compound on cancer and fibrosis” (NATIONAL UNIVERSITY CORPORATION TOTTORI UNIVERSITY, priority 2014, dated 2022):

Experiments:
CD44-positive HuH7 cells = experiment: Liver cancer model mice, CD44-positive HuH7 cells subcutaneously transplanted; assay type: in vivo; conditions: for change in the body weight: 50 mg/kg IC-2 or 30 mg/kg 5-FU intraperitoneally every 3 days
Experimental: CD44-positive HuH7 cells were subcutaneously transplanted into mice. The mice were then divided into 3 groups (DMSO group: 5 mice; 5-FU group: 4 mice; and IC-2 group: 4 mice). Subsequently, 30 mg/kg of 5-FU, 50 mg/kg of IC-2, or DMSO (as a control), which was a solvent for each chemical, was intraperitoneally administered every 3 days. The body weight and the tumor length and width of each mouse were measured every 3 days. The tumor volume was calculated by using the following equation: Tumor volume=Length×(Width)^2×0.5. The volume at Day 0 was used to normalize each tumor volume, and then a graph was created. To sufficiently evaluate an effect of 5-FU, the dosage that was usually […] in research articles was doubled to set a 5-FU dose. The IC-2 concentration corresponding to a concentration at which a Wnt/β-catenin signal was inhibited in vitro was calculated. Then, the concentration was doubled to set an IC-2 dose.

[1] = tested on: CD44-expressing HSC2 cells; experiment: Inhibitory effect on cancer stem cells in squamous cell carcinoma (CD44 FACS); assay type: cell-based, human; conditions: 5-FU 0.5 μM, IC-2 25 μM, PN-3-13 7.5 μM, HC-1 50 μM, 48 hours, no treatment 83.9%
Experimental: First, 5×10^5 of HSC2 cells were plated on a 10-cm dish. After 24 hours, the cells were treated with 5-FU (0.5 μM), IC-2 (25 μM), PN-3-13 (7.5 μM), or HC-1 (50 μM). Also, some of the cells were prepared without low-molecular-weight compound treatment (0 μM). After additional 48 hours, the cells were harvested. An anti-human CD44 antibody (Abcam Ltd., Cambridge, UK) was used as a primary antibody and an Alexa 488-labeled goat anti-mouse IgG antibody (Life Technologies Corp., Carlsbad, Calif., USA) was then used. After that, analysis was performed by using a cell sorter, BD bioscience FACS Aria (BD Biosciences, CA, USA). Note that the concentration of each low-molecular-weight compound was determined on the basis of the IC50 concentration at 48 hours in a WST assay.

CD44^high DLD-1 cells = experiment: Inhibitory effect on cancer stem cells in colon cancer (CD44 FACS); assay type: cell-based, human; conditions: IC-2 50 μM, 5-FU 0.5, 5 μM, 48 hours, vs control
Experimental: First, 1×10^6 DLD-1 cells were seeded on a 10-cm dish. After 24 hours, the cells were treated with 5-FU (0.5, 5 μM) or IC-2 (50 μM). After additional 48 hours, the cells were harvested. An anti-human CD44 antibody (Abcam Ltd., Cambridge, UK) was used as a primary antibody and an Alexa 488-labeled goat anti-mouse IgG antibody (Life Technologies Corp., Carlsbad, Calif., USA) was then used. After that, analysis was performed by using a MoFlo XDP (Beckman Coulter Inc., Fullerton, Calif.).

[2] = tested on: liver cancer cell line HLF (CD90); experiment: FACS analysis of CD90-expressing cells; assay type: cell-based, human; conditions: 0.5 μM 5-FU, 50 μM IC-2, two days, DMSO 21.8%
Experimental: A liver cancer cell line HLF was seeded at 1.5×10^6 cells/dish on 10-cm dishes. Next, the cells were cultured at 37° C. and 5% CO2. After 24 hours, 1% DSMO, 0.5 μM 5-FU, or 50 μM IC-2 was added thereto and the cells were further incubated. Two days after the chemical treatment, the cells were harvested. Then, the cells were blocked in 0.5% BSA/0.5% FBS/2 mM EDTA/PBS. Subsequently, 5 μL of an APC-labeled mouse anti-human CD90 antibody (BD Biosciences, San Jose, Calif., USA) was added to 500 μL of a cell suspension and the resulting mixture was resuspended and incubated at 4° C. for 10 min to carry out a primary antibody reaction. After the antibody reaction, the cells were washed twice with 0.5% FBS/2 mM EDTA/PBS and once with 5% FBS/2 mM EDTA/DMEM. Next, the cells were resuspended in 500 μL of 5% FBS/2 mM EDTA/PBS. Then, 1 μg/mL of propidium iodide was added thereto. After that, the mixture was made to pass through a tube with a 40-μm mesh filter. Finally, a Beckman Coulter-MoFlo XDP was used to analyze CD90-expressing cells. […] The concentration of IC-2 was determined on the basis of a concentration at which a Wnt/β-catenin signal was inhibited.

[3] = tested on: CD44-positive HuH7 cells (cancer stem cells); experiment: Inhibitory effect on cancer stem cells (FACS analysis, CD44); assay type: cell-based, human; conditions: IC-2 50 μM, PN3-13 10 μM, 5-FU 0.5 μM, two days, vs DMSO control
Experimental: The following protocol was used to investigate an inhibitory effect of each low-molecular-weight compound on cancer stem cells. CD44, a cancer stem cell marker, was used as an index. HuH7 cells at 70 to 90% confluency were collected and 1.5×10^6 cells were seeded on a 10-cm dish (TPP Techno Plastic Products AG, Trasadingen, Switzerland). After 15 hours, the cells were treated with each of Hexachlorophene (15 μM), ICG-001 (15 μM), PKF118-310 (5 μM), IC-2 (50 μM), PN3-13 (10 μM), and 5-FU (0.5 μM) and were incubated at 37° C. DMSO, which was a solvent for each of the low-molecular-weight compounds and anti-cancer drugs, was used as a control. Two days after the chemical treatment, the cells on a dish were collected. Next, the cells were centrifuged at 1000 rpm for 5 min at 4° C. to remove a supernatant. Then, the cells were washed twice with 1 mL of 0.5% FBS/2 mM EDTA/PBS. After that, the cells were suspended in 500 μL of 5% BSA/0.5% FBS/2 mM EDTA/PBS and blocked once for 15 min at 4° C.
Next, 5 μL of an anti-human CD44 monoclonal antibody (Cell Signaling Technology Inc., Danvers, Mass., USA) was added. Then, the cells were suspended and a primary antibody reaction was performed in a dark room for 10 min at 4° C. After that, the cells were washed 3 times with 1 mL of PBS. […] Note that a significant difference was evaluated by using Student's t-test (two-tailed). […]

Structure (SMILES)	change in the body weight (CD44-positive HuH7 cells)	therapeutic effect of treating a malignant tumor (tumor volume) (CD44-positive HuH7 cells; 50 mg/kg IC-2 vs 30 mg/kg 5-FU intraperitoneally every 3 days)	proportion of CD44-expressing cells [1] [%]	proportion of CD44^high cells (CD44^high DLD-1 cells)	proportion of the CD90-expressing cells [2] [%]	number of cancer stem cells (CD44-positive cells) [3]
O=C1[C@H](Cc2ccccc2)N2C(=O)CCN(C(=O)NCc3ccccc3)[C@H]2CN1Cc1cccc2ccccc12 [IC-2]	no observable change in the body weight	significantly higher therapeutic effect of treating a malignant tumor than that of 5-FU	71.4	significantly decreased the proportion of CD44^high cells	13.5	significantly less than that of the control
O=c1[nH]cc(F)c(=O)[nH]1 [5-FU, reference compound]	no observable change in the body weight	–	83.3	rather increased the proportion	24.1	rather increased the number of cancer stem cells
